Results published in ChEMBL document CHEMBL4706644, “Structure-Activity Relationship Studies of Pyrimidine-4-Carboxamides as Inhibitors of N-Acylphosphatidylethanolamine Phospholipase D” (J Med Chem, 2021).

Each compound was assayed against T1, N-acyl-phosphatidylethanolamine-hydrolyzing phospholipase D (Homo sapiens, UniProt Q6IQ20) (assay: Inhibition of full length human NAPE-PLD expressed in HEK293T cell lysate using PED6 as substrate preincubated for 30 mins followed by substrate addition and measured at 2 mins interval for 1 hr by tecan-plate reader analysis).
Format: subcellular

T1 sequence (Q6IQ20 whole entry): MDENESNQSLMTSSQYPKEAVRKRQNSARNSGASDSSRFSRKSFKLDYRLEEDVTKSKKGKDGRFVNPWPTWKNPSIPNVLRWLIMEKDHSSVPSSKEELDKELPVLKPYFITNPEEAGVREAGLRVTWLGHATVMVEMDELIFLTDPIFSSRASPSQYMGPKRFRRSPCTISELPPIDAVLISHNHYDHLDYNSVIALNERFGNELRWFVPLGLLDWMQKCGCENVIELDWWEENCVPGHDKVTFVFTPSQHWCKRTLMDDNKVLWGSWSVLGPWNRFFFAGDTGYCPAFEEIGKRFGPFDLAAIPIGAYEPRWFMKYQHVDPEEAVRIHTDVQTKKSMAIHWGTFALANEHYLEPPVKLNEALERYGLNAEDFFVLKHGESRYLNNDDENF

Structure (SMILES) | IC50
O=C(NCC1CC1)c1cc(N2CCOCC2)nc(NCc2ccccc2)n1 | 22.9 µM
CNC(=O)c1cc(N2CCOCC2)nc(N(C)CCc2ccccc2)n1 | 13.5 µM
CN(CCc1ccccc1)c1nc(C(N)=O)cc(N2CCOCC2)n1 | 17.8 µM
O=C(NCC1CC1)c1cc(N2CCOCC2)ncn1 | > 50.1 µM
O=C(NCC1CC1)c1cc(N2CCOCC2)nc(Cl)n1 | > 50.1 µM
O=C(NCC1CC1)c1cc(N2CCOCC2)nc(N(CCc2ccccc2)c2ccccc2)n1 | 1.12 µM
CN(CCc1ccccc1)c1nc(C(=O)NCC2CC2)cc(N2CCS(=O)(=O)CC2)n1 | > 50.1 µM
CN(CCc1ccccc1)c1nc(-c2ncc(C3CC3)[nH]2)cc(N2CCOCC2)n1 | 40.7 µM
CNC(=O)CNC(=O)c1cc(N2CCOCC2)nc(N(C)CCc2ccccc2)n1 | 17 µM
CN(CCc1ccccc1)c1nc(NC(=O)CC2CC2)cc(N2CCOCC2)n1 | 7.59 µM
CN(CCc1ccccc1)c1nc(C(=O)NCC2CC2)nc(N2CCOCC2)n1 | > 50.1 µM
CN(CC1CC1)C(=O)c1cc(N2CCOCC2)nc(N(C)CCc2ccccc2)n1 | > 50.1 µM
CN(CCc1ccccc1)c1nc(C(=O)NCc2ccc(-c3ccccc3)cc2)cc(N2CCOCC2)n1 | > 50.1 µM
CN(CCc1ccccc1)c1nc(C(=O)O)cc(N2CCOCC2)n1 | > 50.1 µM
CN(CCc1ccccc1)c1nc(C(=O)NCC2CC2)cc(N2CCOCC2)n1 | 0.813 µM
CN(CCc1ccccc1)c1nc(C(=O)NCC#N)cc(N2CCOCC2)n1 | 30.9 µM
CN(CCc1ccccc1)c1nc(C(=O)NCC(=O)O)cc(N2CCOCC2)n1 | > 50.1 µM

Other lines, results leading:

IC50 | Structure (SMILES)
32.4 µM | CN(CCc1ccccc1)c1nc(C(=O)NCc2nccs2)cc(N2CCOCC2)n1
23.4 µM | CN(CCc1ccccc1)c1nc(C(=O)NCc2ccccc2)cc(N2CCOCC2)n1
33.1 µM | CN(CCc1ccccc1)c1nc(C(=O)NCC(F)(F)F)cc(N2CCOCC2)n1
0.741 µM | O=C(NCC1CC1)c1cc(N2CCOCC2)nc(N(CCc2ccccc2)Cc2ccccc2)n1
21.4 µM | CN(CCc1ccccc1)c1nc(C(=O)NCC(C)(C)C)cc(N2CCOCC2)n1
34.7 µM | CCCCCCNC(=O)c1cc(N2CCOCC2)nc(N(C)CCc2ccccc2)n1
12.9 µM | CN(CCc1ccccc1)c1nc(C(=O)NCC2CC2)cc(N2CCN(C(=O)OCc3ccccc3)CC2)n1
17.4 µM | O=C(NCC1CC1)c1cc(N2CCS(=O)(=O)CC2)nc(N2CCC[C@@H](c3ccccc3)C2)n1
11 µM | COCCNC(=O)c1cc(N2CCOCC2)nc(N(C)CCc2ccccc2)n1
25.1 µM | O=C(NCC1CC1)c1cc(N2CCOCC2)nc(N2CCCCC2CC2CCCCC2)n1 (racemic)

Each compound was assayed against T2, N-acyl-phosphatidylethanolamine-hydrolyzing phospholipase D (Mus musculus, UniProt Q8BH82) (assay: Inhibition of full length mouse NAPE-PLD expressed in HEK293T cell lysate using PED6 as substrate preincubated for 30 mins followed by substrate addition and measured at 2 mins interval for 1 hr by tecan-plate reader analysis).
T2 sequence (Q8BH82 whole entry): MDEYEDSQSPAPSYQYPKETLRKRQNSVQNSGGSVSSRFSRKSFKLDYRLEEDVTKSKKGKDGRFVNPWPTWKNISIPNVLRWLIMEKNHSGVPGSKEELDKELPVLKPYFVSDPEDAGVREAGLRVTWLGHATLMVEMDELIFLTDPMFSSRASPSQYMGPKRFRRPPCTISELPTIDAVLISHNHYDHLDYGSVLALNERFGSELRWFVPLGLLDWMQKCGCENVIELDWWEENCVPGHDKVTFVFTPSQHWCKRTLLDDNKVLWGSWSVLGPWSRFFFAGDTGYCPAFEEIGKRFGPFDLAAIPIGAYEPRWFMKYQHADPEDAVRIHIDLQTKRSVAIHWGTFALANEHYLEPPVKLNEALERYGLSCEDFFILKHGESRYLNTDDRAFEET
Format: subcellular

Structure (SMILES) | IC50
O=C(NCC1CC1)c1cc(N2CC[C@@H](O)C2)nc(N2CCC[C@H](c3ccccc3)C2)n1 | 1.26 µM
O=C(NCC1CC1)c1cc(N2CCOCC2)nc(N2CCC[C@@H](c3ccccc3)C2)n1 | 0.575 µM
O=C(NCC1CC1)c1cc(N2CC[C@H](O)C2)nc(N2CCC[C@H](c3ccccc3)C2)n1 | 1.82 µM
O=C(NCC1CC1)c1cc(N2CC[C@@H](O)C2)nc(N2CCC[C@@H](c3ccccc3)C2)n1 | 0.38 µM
CN(C)c1cc(C(=O)NCC2CC2)nc(N2CCC[C@@H](c3ccccc3)C2)n1 | 0.389 µM
CN(CCc1ccccc1)c1nc(C(=O)NCC2CC2)cc(N2CCOCC2)n1 | 3.31 µM

Now from value to compound:

IC50 | Structure (SMILES)
9.55 µM | O=C(NCC1CC1)c1cc(N2CCS(=O)(=O)CC2)nc(N2CCC[C@@H](c3ccccc3)C2)n1
0.447 µM | O=C(NCC1CC1)c1cc(N2CC[C@H](O)C2)nc(N2CCC[C@@H](c3ccccc3)C2)n1

These compounds were tested against T1, N-acyl-phosphatidylethanolamine-hydrolyzing phospholipase D (assay: Inhibition of full length human NAPE-PLD expressed in HEK293 cells using radiolabelled diether-NAPE as substrate incubated for 20 mins by liquid scintillation counter analysis).

IC50 | Structure (SMILES)
10 µM | CCCCCCCCCCCCCC(=O)NCCNP(=O)(O)OCC(COC(=O)CCCCC)OC(=O)CCCCC (stereo unspecified)
